In patent US9980972B2, “Rho kinase inhibitors for use in treating familial amyotrophic lateral sclerosis” (GEORG-AUGUST-UNIVERSITÄT GÖTTINGEN STIFTUNG ÖFFENTLICHEN …, priority 2012, dated 2018):

Legend:
[1] = system: SOD1 G93A mouse model of ALS; test: Survival (age at death) in SOD1 G93A mouse model of ALS; type: in vivo; conditions: for survival proportions over time: non-differentiated by gender
Excerpt: High-copy B6SJL-Tg(SOD1*G93A)1Gur/J were obtained from Jackson Labs (Stock Number 002726; Bar Harbor, USA) that had originally been produced by Gurney et al. (Gurney, Pu et al. 1994). The colony was maintained by crossing C57BL/6 males harboring the transgene with wild-type SJL females. To verify presence of the transgene in the F1 progeny, tail biopsies were collected from 14-day-old pups and genotyped using PCR. At the age of 35-45 days mice were moved to the testing facility to acclimate to the new environment with a 12-h light/dark cycle before being assigned to a study.
At 50 days (presymptomatic, d50) or 80 days of age (symptomatic, d80) mice were separated into Fasudil-30 (Fas30)- and Fasudil-100 (Fas100)-Treatment or Vehicle Control (Veh) groups. Prior to any treatment, groups were constituted so as to minimize between-group variability by using the following criteria. Groups were balanced with respect to gender and body weight within gender. In addition, groups were age-matched and littermate-matched. […] The study was observer-blinded.
(§1) To reach sufficient CSF levels of Fasudil the inventors administered Fasudil (LC Labs, Woburn, USA; product number F-4660) at a low concentration of […] (Fas30) or at a high concentration of 50 mg (Fas100) in 100 ml drinking water. Control groups received the respective amount of isotonic drinking water termed as vehicle (Veh).
Chronic oral treatment with a low dose of Fasudil (F30) or a high dose of Fasudil (F100) was started either presymptomatically at day 50 or symptomatically at day 80 and continued until death.
Survival. Date and cause of death were recorded for each mouse. For humane reasons, animals are closely monitored and sacrificed as moribund prior to actual death using criteria for severe moribundity. To determine duration of survival reliably and humanely, the moribund state, defined as the inability of mice to right themselves 30 seconds after being placed on a side (a neurological score of 4) was used. The moribund mice were scored as “dead”, and were euthanized using carbon dioxide.
The data were then analyzed using Kaplan-Meier survival fit analysis with the Log-Rank and Wilcoxon tests for statistical significance. Cox proportional hazards analysis was also performed to determine hazard ratios and test for statistical significance of their differences using the Effect Likelihood Chi Square test. Statistical analyses were performed using Statistica 9.1 (StatSoft, Hamburg, Germany). P-values less than 0.05 were taken to be statistically significant.
The criteria to terminate the therapy study (later referred to as time of death) were fulfilled if the animals had reached the terminal neurological scoring or had lost a defined percentage of the maximal body weight. This time point then reflects the survival time of the animals whereas disease duration was measured from onset of disease until time of death.

[2] = system: SOD1 G93A mouse model of ALS; test: Disease duration (onset until death) in SOD1 G93A mice; type: in vivo
Excerpt: Disease duration. This parameter was selected in order analyze the treatment effects under a clinically relevant situation of the time from disease onset until death. Disease duration is defined as beginning from the appearance of the first clinical symptoms until death.

[3] = system: SOD1 G93A mouse model of ALS; test: Hanging wire test (crude muscular strength), time to failure of 180 s; type: in vivo; conditions: either treatment groups of both sexes
Excerpt: The hanging wire test evaluates crude grip strength of the upper extremities.
The hanging wire performance evaluating crude muscular strength in the task to reach a total hanging wire time of 180 s was not different in either treatment groups of both sexes (FIG. 6). Wildtype animals always reached the maximum time of 180 s (data not shown).

[4] = system: wildtype primary motoneurons in astrocyte/motoneuron co-culture; test: Kainic acid toxicity in astrocyte/motoneuron co-culture; type: cell-based; conditions: KA exposure 24 h, Fasudil 4 or 20 μM, co-culture with astrocytes
Excerpt: In order to compare the Fasudil neuroprotective effect on motoneurons in vivo with an corresponding in vitro paradigm the inventors subjected wildtype primary motoneurons cultured in a astrocyte/motoneuron co-culture to kainic acid (KA) toxicity.

[5] = CSF analysis after sub-occipital cistern magna puncture; type: in vivo, mouse; conditions: oral via drinking water; data not shown
Experimental: as §1

O=S(=O)(c1cccc2cnccc12)N1CCCNCC1 [Fasudil, 1-(5-isoquinolinesulfonyl)homopiperazine]
average survival ([1]; female, presymptomatic (d50) treatment, Fas30 (30 mg/kg/day in drinking water), control 130.4 days): 141.8 days | survival ([1]; male, presymptomatic (d50), Fas30): trend in prolongation of survival | survival proportions over time ([1]; presymptomatic (d50), Fas30): profited significantly from the treatment | survival proportions over time ([1]; symptomatic (d80), Fas30): did not show a statistically significant difference | survival proportions over time ([1]; symptomatic (d80), Fas100 (100 mg/kg/day)): did not show a statistically significant difference | survival effect ([1]; presymptomatic (d50), Fas100, compared with Fas30): less prominent | survival ([1]; symptomatic treatment start, female or male group): not able to prolong survival | disease duration ([2]; presymptomatically treated female mice): prolonged time | disease duration ([2]; symptomatically treated groups): did not show any significant alterations | hanging wire performance (180 s) [3]: not different | survival of KA exposed motoneurons [4]: protected motoneurons from KA induced cell death | blood-brain-barrier crossing (CSF analysis) [5]: readily crossed the blood-brain-barrier
